Columns and labels:
CCL2 [1] = assay: CCL2 production by LPS-stimulated monocytes (ELISA); assay type: cell-based, human
Description: (§1) Supernatants of untreated cells or cells treated with ecteinascidin 743 or other anti-neoplastic agents were collected after 24 h culture and frozen. Monocytes, macrophages and TAM were stimulated with 100 ng/ml LPS to induce maximal cytokine production. Determination of cytokines CCL2, TNF and IL-6 was measured by specific ELISA following the manufacturer's instructions.
(§2) Monocytes and in vitro differentiated macrophages were stimulated with LPS (100 ng/ml). After 1 h LPS stimulation they were treated with ecteinascidin 743. After 16 h incubation, cell supernatants were harvested and tested in ELISA. Under these treatment conditions cell viability was usually >85% for concentrations up to 5 nM. […] Mean inhibition at 5 nM, for monocytes, was 65% (range 50-80%, n=5) and was 50% (range 25-75%, n=5) for in vitro differentiated macrophages. Results are mean+/−SE of 3-5 experiments
Similar results were obtained when monocytes were stimulated with LPS (100 ng/ ml) and treated with ET743 and the other ecteinascidin compounds, although the overall inhibition was less marked compared with the previous experiment where the tumor supernantant was used as CCL2-inducing stimulus.
CCL2 and TNF production by LPS-stimulated monocytes treated with the indicated doses of the anti-tumor agents was also tested. Cell supernatants were harvested after 24 h-incubation and tested in ELISA. […] None of these compounds interfered with the production of TNF.
A major finding of our work is the inhibitory activity of ecteinascidin 743 on the production of inflammatory cytokines. Among various inflammatory cytokines produced by monocyte/macrophages we have tested IL-6, TNF and the chemokine CCL2. CCL2 is a chemokine attracting monocytes and other leukocyte subsets, and is produced both by monocyte/macrophages and several tumour cells. It has been described that ovarian adenocarcinoma cells produce huge amounts of CCL2 and that their levels correlate with the macrophage content of tumours. CCL2 is therefore one of the most important factors regulating monocyte/macrophages recruitment at the tumour site. […] Thus, lower levels of CCL2 by TAM and tumour cells are likely to reduce the number of macrophages recruited at the tumour site. In the above described in vitro experiments ecteinascidin 743 was present throughout the 16-h culture period. We also checked whether a shorter in vitro exposure to ecteinascidin 743 was sufficient to affect cytokine production. Monocytes exposed to ecteinascidin 743 were washed after 1 hour culture and replaced in fresh medium.

[2] = system: macrophage differentiation; assay: In vitro macrophage differentiation of monocytes with M-CSF (phenotype analysis); assay type: cell-based, human; details: 1 nM, 5 days with M-CSF 20 ng/ml
Description: Expression of cell membrane markers was performed by immunofluoresce and analyzed by Flow Cytometry. Cells were incubated with anti-CD14, anti-CD16, anti-CD68, anti-CD206 (mannose receptor) and then with FITC-goat anti-mouse Ig as described. At least 10,000 cells were analyzed.
In order to study the effect of ecteinascidin 743 on macrophage differentiation, non cytotoxic doses of the drug were used. Monocytes were cultured with M-CSF (20 ng/ml) and with sub-cytotoxic concentrations of ecteinascidin 743 for 5 days. Phenotype analysis was performed by indirect immunofluorescence and analyzed in Flow Cytometry by gating on large cells. Usually, an average of 65±15% (mean±SD of>10 experiments) of input monocytes differentiate into large cells expressing typical macrophage markers, including CD16, CD68 and CD206 (mannose receptor). After 5 days of culture monocyte viability, evaluated by propidium iodide staining in flow cytometry, was 92% and 70% of untreated cells at 0.5 and 1 nM ecteinascidin 743, respectively.

CCL2 [3] = assay: CCL2 production by LPS-stimulated in vitro differentiated macrophages (ELISA); assay type: cell-based; details: Homo sapiens, Macrophage; 5 nM, LPS 100 ng/ml, 16 h, n=5
Description: as §1, §2

IL-6 = assay: Constitutive IL-6 production by freshly isolated ovarian tumour cells (ELISA); assay type: cell-based, human; details: 16 h
From the text: Tumour-associated macrophages (TAM) and tumour cells were isolated from the ascitic fluid of patients with diagnosed ovarian adenocarcinoma, admitted to the Clinic of Obstetrics and Gynecology of the University of Milan-Bicocca, S Gerardo Hospital. Cells contained in the ascitic fluid were centrifuged and isolated by differential density gradients of Ficoll and Percoll, and plastic adherence as previously described (see Allavena, P., Peccatori, F., Maggioni, D., Erroi, A., Sironi, M., Colombo, N., Lissoni, A., Galazka, A., Meiers, W., Mangioni, C., et al. Intraperitoneal recombinant gamma-interferon in patients with recurrent ascitic ovarian carcinoma: modulation of cytotoxicity and cytokine production in tumour-associated effectors and of major histocompatibility antigen expression on tumour cells. Cancer Res, 50: 7318-7323, 1990). Purity of TAM and tumour cell preparations was usually>65±10% as defined by morphology and phenotype analysis. Cells were treated with ecteinascidin 743 at the indicated concentrations and cultured for 1-5 days, as specified in figure legends. […]
Monocytes, macrophages and TAM were stimulated with 100 ng/ml LPS to induce maximal cytokine production. Determination of cytokines CCL2, TNF and IL-6 was measured by specific ELISA following the manufacturer's instructions. […]

## COc1cc2c(cc1O)CCN[C@]21CS[C@@H]2c3c(OC(C)=O)c(C)c4c(c3[C@H](COC1=O)N1[C@@H]2[C@H]2c3c(cc(C)c(OC)c3O)C[C@@H]([C@@H]1O)N2C)OCO4 [ecteinascidin 743]
CCL2 [1]; Homo sapiens, Monocyte, 5 nM, LPS 100 ng/ml, 16 h, n=5
  inhibition at 0.005 µM: 65%
CCL2 [1]; monocytes washed after 1 hour culture with drug, fresh medium
  inhibition of CCL2 production: 57%
CCL2 [1]; monocytes, 16 h-treatment
  inhibition of CCL2 production: 69%
[2]
  de novo expression of CD68, CD16 and CD206: reduced
CCL2 [3]
  inhibition at 0.005 µM: 50%
IL-6
  constitutive production of IL-6 by freshly isolated tumour cells: reduced

— patent publication US20080076772A1, “Anti-Inflammatory Agents” (Pharma Mar S.A. Sociedad Unipersonal, priority 2004, published 2008)
